Results from PubChem BioAssay AID179 (DTP/NCI, 2004).
Activity calls are given as the source filed them.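 Rule for the calls: active = compounds giving half or more protection of infected cells from virus-caused growth loss, again on retest; inactive = the rest.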

Test system: CEM cells HIV-1 protection, formazan growth assay
Experiment: NCI AIDS Antiviral Assay
Details: for IC50: measured here: growth of uninfected CEM cells
Outline: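 Steps: treat uninfected and HIV-1-infected human CEM cells at five drug levels; quantify growth by soluble formazan; retest any compound reaching 50% protection; classify actives from the retest.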

SMILES	EC50	IC50	outcome
COc1ccc2c(=O)c(-c3ccccc3)c(C)oc2c1	> 200 µM	75.9 µM	–
O=C(NC(Nc1ccc(F)cc1)(C(F)(F)F)C(F)(F)F)C(C(F)(F)F)C(F)(F)F	–	–	inactive
Cc1c(C(=O)O)n2c(C)nnc2c2ccccc12	> 200 µM	> 200 µM	–
CC(=O)O[C@@H](c1nccn1Cc1ccccc1)[C@H]1OC(C)(C)O[C@@H]1[C@H]1COC(C)(C)O1	> 200 µM	> 200 µM	–
CCC1(c2cccc(C)c2)Oc2ccccc2-n2cccc2C1=O (stereo not drawn)	0.537 µM	126 µM	–
Cc1ccc2c(c1)C(C1Cc3cccc(C)c3C1=O)OC2=O (stereo not drawn)	> 200 µM	> 200 µM	–
CCOCC(/C=N/N=C(N)N)=N\N=C(N)N	> 759 µM	> 759 µM	–
Nn1c(=S)[nH]c2ccccc2c1=O	> 200 µM	> 200 µM	–
CC(C)(C1=NC(C(C)(C)C)CO1)C1=N[C@@H](C(C)(C)C)CO1 (stereo partly drawn)	> 251 µM	> 251 µM	–
c1cc2cc(c1)CNCCNCCNCc1cccc(c1)CNCCNCCNC2	> 138 µM	60.3 µM	–
CC[C@]12C=CCN3CCC4(c5cc([C@]6(C(=O)OC)C[C@H]7CN(CCc8c6[nH]c6ccccc86)C[C@@H]6CCCC[C@H]76)c(OC)cc5N(C)C4[C@@](O)(C(=O)OC)C1OC(C)=O)[C@@H]32 (stereo partly drawn)	> 240 µM	1.32 µM	–
COc1ccc(Cc2c3cc(O)c(=O)cc-3ccn2C)cc1	> 33.9 µM	6.46 µM	–
N#Cc1nc(C2SCCCS2)oc1N	> 200 µM	> 200 µM	–
C[C@@]1(CO)[C@H](O)CC[C@@]2(C)[C@H]1CC[C@H]1C[C@@H]3C[C@@]12CC[C@@]3(O)COC(=O)CN	> 575 µM	0.331 µM	–
Nc1nnc(-c2ccccc2O)o1	> 200 µM	110 µM	–
CSc1c(C(=O)Nc2ccc(C)cc2)c(N)n(N)c(=O)c1C#N	100 µM	151 µM	–
CC(C)OP(=O)(OC(C)C)/C(N)=N/Nc1ccc([N+](=O)[O-])cc1	> 195 µM	> 100 µM	–
Cc1cc(N(CCC#N)CCC#N)ccc1/C=C(\N=[N+]=[N-])C(=O)NC(=O)COc1ccccc1	> 8.32 µM	> 8.32 µM	–
COc1cc(/C=C(\C#N)c2ccc([N+](=O)[O-])cc2)ccc1O	> 151 µM	27.5 µM	–
O=C(N/N=C/C=C/c1ccccc1)c1ccncc1	> 200 µM	33.1 µM	–
COCCN(C(=O)c1ccccc1)C1CCC2(SCCS2)c2[nH]c3ccccc3c21 (stereo not drawn)	> 200 µM	24 µM	–

SMILES	EC50	IC50	outcome
N#C/C(=C\c1cc(O)c(O)c([N+](=O)[O-])c1)C(=O)NCCCNC(=O)/C(C#N)=C/c1cc(O)c(O)c([N+](=O)[O-])c1	> 200 µM	72.4 µM	–
N=c1nnc2ccc(Cl)cc2n1O	> 200 µM	33.1 µM	–
COC(=O)C1OC2(CCCC3CC32)O[C@H]1C(=O)OC (stereo partly drawn)	–	–	inactive
O=c1cc(NCC2CCCCC2)[nH]c(=O)[nH]1	> 200 µM	> 200 µM	–
CC(C)C1(O)C(c2ccccc2)=C(c2ccccc2)C(c2ccccc2)=C1c1ccccc1	–	–	inactive
O=C(O)c1cc2c3c(c1)[C@H]1C=CC[C@H]1CN3CC1CC=CC21 (stereo partly drawn)	–	–	inactive
CN(C(=O)C12C3C4(C(=O)O)C1(C(=O)N(C)C(C)(C)C)C1C2(C(=O)O)C3(C(=O)N(C)C(C)(C)C)C14C(=O)N(C)C(C)(C)C)C(C)(C)C (stereo not drawn)	> 151 µM	> 151 µM	–
CCN(CC)Cc1cc(O)c(CN(CC)CC)cc1O	> 891 µM	72.4 µM	–
CN1CCCOC(c2ccc(Cl)cc2)O1 (stereo not drawn)	> 200 µM	> 200 µM	–
CCN(CC)Cc1c(OC)ccc2[nH]c3c4ccc(Cl)cc4ncc3c12	> 200 µM	1.1 µM	–
CCCCCCCNC1=C(O)c2ccccc2C(=O)C1=O	> 200 µM	55 µM	–
O=c1oc2cc(O)ccc2c(O)c1C(c1cccnc1)c1c(O)c2ccc(O)cc2oc1=O	–	–	inactive
CC1C[C@@H]2C(=O)NC(=O)[C@@H]2c2c1c1ccccc1n2C (stereo partly drawn)	> 331 µM	214 µM	–
CC(=O)NC1=CC(=O)c2cc(C)cc(O)c2C1=O	> 200 µM	5.01 µM	–
COC(=O)C(COC(=O)/C=C/c1ccc(OC(C)=O)c(OC(C)=O)c1)OC(=O)/C=C/c1ccc(OC(C)=O)c(OC(C)=O)c1 (stereo not drawn)	> 200 µM	25.7 µM	–
COc1cc2c(cc1OC)CN1CCc3ccccc3CC1C2 (stereo not drawn)	> 200 µM	14.8 µM	–
CN(O)C1CC(=O)OC1CO[Si](C)(C)C(C)(C)C (stereo not drawn)	> 200 µM	51.3 µM	–
CC1(C)N/C(=C\[N+](=O)[O-])C(C)(C)N1O	> 200 µM	> 200 µM	–
CN(C)c1ccc(/C=C/c2ccnc3c(O)cccc23)cc1	> 18.2 µM	1.05 µM	–
CC1C(NNc2ccccc2)Oc2cc3c(cc2C1c1ccccc1O)OCO3 (stereo not drawn)	–	–	inactive
O=C(N/N=C/c1ccc(Cl)cc1Cl)c1ccccc1SSc1ccccc1C(=O)N/N=C/c1ccc(Cl)cc1Cl	38.9 µM	178 µM	–
